Laboratory results reported in ChEMBL document CHEMBL5260817, “Polyamine-based analogs and conjugates as antikinetoplastid agents” (Eur J Med Chem, 2017).
Each block holds one compound with its values, some of them ahead of it.

Key:
[1] = system: Trypanosoma brucei; experiment: Antiprotozoal activity against Trypanosoma brucei clone 427-221a; type: functional, organism-based
[2] = system: HL-60; experiment: Anticancer activity against human HL-60 cells assessed as cell growth inhibition by trypan blue staining based assay; type: functional
[3] = system: Leishmania major; experiment: Antiprotozoal activity against Leishmania major amastigotes; type: functional, organism-based
[4] = target: Trypanothione reductase (Trypanosoma brucei brucei, UniProt P39051); experiment: Inhibition of Trypanosoma brucei TryR
Trypanothione reductase, sequence (P39051 whole entry): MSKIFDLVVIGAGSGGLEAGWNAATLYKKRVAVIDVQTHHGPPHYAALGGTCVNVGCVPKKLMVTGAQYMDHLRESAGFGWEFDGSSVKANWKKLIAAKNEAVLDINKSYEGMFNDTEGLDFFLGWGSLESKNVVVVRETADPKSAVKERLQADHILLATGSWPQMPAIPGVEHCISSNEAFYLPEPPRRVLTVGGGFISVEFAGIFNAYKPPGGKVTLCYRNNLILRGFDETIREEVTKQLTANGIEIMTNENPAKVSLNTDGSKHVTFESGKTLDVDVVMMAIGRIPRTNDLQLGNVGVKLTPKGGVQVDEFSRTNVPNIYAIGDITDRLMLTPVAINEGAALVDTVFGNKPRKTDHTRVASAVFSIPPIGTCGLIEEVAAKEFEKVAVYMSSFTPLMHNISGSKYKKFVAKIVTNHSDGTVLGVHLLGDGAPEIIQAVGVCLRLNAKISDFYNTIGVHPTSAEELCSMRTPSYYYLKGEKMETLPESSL

[5] = system: Trypanosoma brucei; experiment: Trypanocidal activity against Trypanosoma brucei; type: functional, organism-based
[6] = Inhibition of Trypanosoma brucei MetRS in presence of ATP
[7] = system: Trypanosoma brucei; experiment: Trypanocidal activity against Trypanosoma brucei trypomastigotes; type: functional, organism-based
[8] = Anticancer activity against human CRL-8155 cells assessed as cell growth inhibition; type: functional, cell-based; settings: CRL8155
[9] = Half life in BALB/c mouse plasma infected with Trypanosoma brucei 427 strain at 25 mg/kg/day, sc measured after 3 days; type: ADME, organism-based; settings: time 3 day
[10] = system: Trypanosoma brucei brucei; experiment: Antiprotozoal activity against Trypanosoma brucei brucei Lab 110 EATRO strain; type: functional, organism-based
[11] = system: Leishmania donovani; experiment: Antiprotozoal activity against Leishmania donovani promastigote measured after 72 hrs by LDH assay; type: functional, organism-based
[12] = Inhibition of TryR (unknown origin); type: functional
[13] = system: Trypanosoma brucei rhodesiense; experiment: Antiprotozoal activity against Trypanosoma brucei rhodesiense STIB900 strain; type: functional, organism-based
[14] = system: L6; experiment: Anticancer activity against rat L6 cells assessed as cell growth inhibition; type: functional, cell-based
[15] = Inhibition of Trypanosoma brucei rhodesiense TryR

IC50 [1]: 1 nM
IC50 [2]: 1000 nM
IC50 [3]: 6000 nM
SMILES: COc1ccc2nc3cc(Cl)ccc3c(NCCCN(C)CCCNc3c4ccc(Cl)cc4nc4ccc(OC)cc34)c2c1

IC50 [4]: 750 nM
SMILES: Clc1ccc2c(c1)N(CCCN1CCN(CCCc3ccccc3)CC1)c1ccccc1S2
IC50 [5]: 770 nM

half-life [9]: 1 h
SMILES: Oc1cc(NCCCNCc2cc(Cl)cc(Cl)c2)nc2ccccc12
IC50 [6]: 8 nM
IC50 [7]: 4 nM
IC50 [8]: > 20000 nM

IC50 [10]: 18 nM
IC50 [11]: 4760 nM
SMILES: N=C(NC1CCCCCC1)c1ccc(N2CCN(c3ccc(C(=N)NC4CCCCCC4)cc3)CC2)cc1

IC50 [12]: 9000 nM
IC50 [13]: 600 nM
SMILES: C[N+](C)(CCCNc1cc(Cl)ccc1Sc1ccccc1)Cc1ccc([N+](=O)[O-])o1
IC50 [14]: > 170000 nM

SMILES: C[N+](C)(CCCNc1cc(Cl)ccc1Sc1ccccc1)Cc1ccc(Cl)c(Cl)c1
IC50 [15]: 5000 nM
